What all share (assay type): cell-based
The test system of one experiment is microbial counts. Nature of the experiment: Independent research lab testing, microbial reduction, 5 minute contact time. The conditions noted are these: 1 part per million, 5 minute contact time with the ambient air.
Experiment [1] deals with Staphylococcus epidermidis ATCC 12228. The experiment can be described thus: Residual effect test on inoculated agar carrier (Table 4). The procedure:
The test substance or PEOA was applied to target which consisted of a microbe inoculated agar plate. The application of the PEOA can be by means such as a dropper, fog, mist or spray or any other acceptable means. […] PEOA was applied to inoculated plates at intervals of 1 minute, 5 minutes, 10 minutes, 30 minutes, 1 hour, 12 hours, 24 hours, 2, days, 5 days, and 7 days after radiation exposure. In one test, after 7 days, the PEOA was again subjected to photon emissions from 0.01 nm to 845 nm for the test labeled reactivation. An additional photon and or phonon exposure similar to the initial enhancement by photon and or phonons of 0.01 nm through 845 nm was the reactivation dose of photons.

A further experiment concerns E. coli. The experiment can be described thus: Microbial reduction by stored photon enhanced solution versus un-exposed hydrogen peroxide. To be noted: samples at 4 weeks post exposure to photons; control not exposed.

Experimental for microbial counts: A small micron PEOA antimicrobial dry fog is administered into the ambient air through an existing HVAC system and device at a concentration of less than 1 part per million.

As to `OO` [standard hydrogen peroxide, hydrogen peroxide], the microbial reduction result with microbial counts was “little or no microbial reduction”.
Regarding `OO` [Control, hydrogen peroxide], the CFU/carrier in experiment [1] (Control, time after radiation exposure N/A) worked out at 6.04E+05 CFU/carrier; in experiment [1] (applied to carrier 2 Days after radiation exposure), 3.00E+05 CFU/carrier; in experiment [1] (applied to carrier 5 Days after radiation exposure) it was 4.50E+04 CFU/carrier; in experiment [1] (applied to carrier 7 Days after radiation exposure) it was 9.80E+04 CFU/carrier; in experiment [1] (applied to carrier 12 Hours after radiation exposure) it was 9.20E+04 CFU/carrier; in experiment [1] (applied to carrier 24 Hours after radiation exposure) it was 1.33E+05 CFU/carrier.
Turning to `OO` [hydrogen peroxide], the “microbial (E. coli) reduction” value with E. coli amounted to 23.08%.

The values above are taken from patent US20240002229A1, “DEVICE FOR ENHANCING REACTION POTENTIAL OF OXIDIZING AGENTS” (Bis Science LLC, priority 2022, published 2024).
